Our source for the Kd values is article PMC7598995, “HT-SuMD: making molecular dynamics simulations suitable for fragment-based screening. A comparative study with NMR” (Journal of Enzyme Inhibition and Medicinal Chemistry, 2020).

The target of the test is T1, Bcl-XL (Homo sapiens, UniProt Q07817).
T1 construct: gene BCL2L1; human Bcl-XL lacking the C-terminus domain (Δ209-233), 6His-tagged
The test can be described thus: NMR: […] SOFAST-HMQC titration, plus STD and WaterLOGSY. The class given is binding.

T1 sequence (Q07817 1-208): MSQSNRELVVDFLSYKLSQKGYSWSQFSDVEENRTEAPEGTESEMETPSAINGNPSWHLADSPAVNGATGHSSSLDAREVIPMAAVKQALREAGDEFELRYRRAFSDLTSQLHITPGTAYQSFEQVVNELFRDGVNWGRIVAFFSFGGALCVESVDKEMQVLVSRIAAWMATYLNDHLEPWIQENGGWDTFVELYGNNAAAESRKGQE

Regarding `Oc1ccccc1Cc1ccccc1` [compound 222, fragment 222], the Kd (usually the equilibrium constant for the complex coming apart) turned out to be 1000 ± 400 µM.
